Data published in US20190203240A1, “METHODS FOR THE PRODUCTION OF RHAMNOSYLATED FLAVONOIDS” (Universitaet Hamburg, priority 2016, published 2019).
“And” between values parts separate entries of the source, which are not always exact repeats. Identical values can stand only once.

Columns and labels:
[1] = test system: normal human epidermal keratinocytes (NHEK); assay: Cytotoxicity on NHEK monolayer (MTT reduction assay and morphological observation); type: cell-based; conditions: MTT; for Viability (%): single values, listed as Nar-5-Rha
Method: To determine the cytotoxicity of flavonoid-5-O-α-L-rhamnosides tests were performed versus their aglycon derivatives in cell monolayer cultures. For this purpose concentrations ranging from 1 μM to 250 μM were chosen. The viability of normal human epidermal keratinocytes (NHEK) was twice evaluated by a MTT reduction assay and morphological observation with a microscope. NHEK were grown at 37° C. and 5% CO2 aeration in Keratinocyte-SFM medium supplemented with epidermal growth factor (EGF) at 0.25 ng/mL, pituitary extract (PE) at 25 μg/mL and gentamycin (25 μg/mL) for 24 h and were used at the 3rd passage. For cytotoxicity testing, pre-incubated NHEK were given fresh culture medium containing a specific concentration of test compound and incubated for 24 h. After a medium change at same test concentration cells were incubated a further 24 h until viability was determined. Test results are given in Table B2 and illustrated in FIG. 10.

IL-8 = assay: Anti-inflammatory potential: secreted IL-8 in stimulated NHEK (ELISA); type: cell-based, human; conditions: 100 μM; for Cytokine [pg/mL] IL-8: single values
Method: (§1) NHEK were pre-incubated for 24 h with the test compounds. The medium was replaced with the NHEK culture medium containing the inflammatory inducers (PMA or Poly I:C) and incubated for another 24 hours. Positive and negative controls ran in parallel. At the endpoint the culture supernatants were quantified of secreted IL-8, PGE2 and TNF-α, by means of ELISA.

TNF-α = assay: Anti-inflammatory potential: secreted TNF-α in stimulated NHEK (ELISA); type: cell-based, human; conditions: poly(I:C) stimulation, 100 μM
Method: as §1

[2] = test system: hydrogen peroxide (DHR) in NHEK cells; assay: Protection against UV-induced H2O2 stress in NHEK (DHR probe, flow cytometry); type: cell-based, human; conditions: 180 mJ/cm^2 UVB (2839 mJ/cm^2 UVA), 100 μM
Method: (§2) Pre-incubated NHEK were incubated with the test compound for 24 h. Then the specific fluorescence probe for the measurement of hydrogen peroxide (DHR) or lipid peroxides (C11-fluor) was added and incubated for 45 min. Irradiation occurred with in H2O2 determination UVB at 180 mJ/cm^2 (+UVA at 2839 mJ/cm^2) or UVB at 240 mJ/cm^2 (+UVA at 3538 mJ/cm^2) in lipid peroxide, respectively, using a SOL500 Sun Simulator lamp. After irradiation the cells were post-incubated for 30 min before flow-cytometry analysis.

[3] = test system: lipid peroxides (C11-fluor) in NHEK cells; assay: Protection against UV-induced lipid peroxide in NHEK (C11-fluor probe, flow cytometry); type: cell-based, human
Method: as §2

[4] = 240 mJ/cm^2 UVB (3538 mJ/cm^2 UVA), 100 μM
[5] = 240 mJ/cm^2 UVB (3538 mJ/cm^2 UVA), 100 μM, single values

`C[C@@H]1O[C@@H](Oc2cc(O)cc3c2C(=O)CC(c2ccc(O)cc2)O3)[C@H](O)[C@H](O)[C@H]1O` (mixture of isomers) [NR1, Naringenin-5-O-α-L-rhamnoside] was tested, and the “Viability (%) Mean” value ([1]; 1 μM) was 101%, the “Viability (%)” value ([1]; 1 μM) was 91% and 111% and the “Viability (%) Mean” value ([1]; 2.5 μM) was 93%. The “Viability (%)” value ([1]; 2.5 μM) was 92% and 93%, the “Viability (%) Mean” value ([1]; 5 μM) was 86% and the “Viability (%)” value ([1]; 5 μM) was 85% and 88%. For the same compound, the “Viability (%) Mean” value ([1]; 10 μM) was 97%, the “Viability (%)” value ([1]; 10 μM) was 94% and 100% and the “Viability (%) Mean” value ([1]; 25 μM) was 95%. The “Viability (%)” value ([1]; 25 μM) was 92% and 98%, the “Viability (%) Mean” value ([1]; 50 μM) was 84% and the “Viability (%)” value ([1]; 50 μM) was 78% and 91%. The “Viability (%) Mean” value ([1]; 100 μM) was 86%, the “Viability (%)” value ([1]; 100 μM) was 82% and 90% and the “Viability (%) Mean” value ([1]; 250 μM) was 83%. The “Viability (%)” value ([1]; 250 μM) was 79% and 87%, the “Cytokine [pg/mL] IL-8 Mean” value (IL-8; PMA stimulation) was 2564 pg/mL and the “IL-8 % stim. control” value (IL-8; PMA stimulation) was 88%. For the same compound, the “Cytokine [pg/mL] IL-8” value (IL-8; PMA stimulation) was 2572 pg/mL and 2555 pg/mL, the “Cytokine [pg/mL] IL-8 Mean” value (IL-8; poly(I:C) stimulation) was 3154 pg/mL and the “IL-8 % stim. control” value (IL-8; poly(I:C) stimulation) was 86%. For the same compound, the “Cytokine [pg/mL] IL-8” value (IL-8; poly(I:C) stimulation) was 3055 pg/mL and 3253 pg/mL, the “Cytokine [pg/mL] TNFα Mean” value (TNF-α) was 516 pg/mL and the “TNFα % stim. control” value (TNF-α) was 92%. The “Cytokine [pg/mL] TNFα” value (TNF-α; single values) was 516 pg/mL, the “H2O2 % irradiated control” value [2] was 136% and the “H2O2 (AU) Mean” value [2] was 2516.5 AU. For the same compound, the “H2O2 Protection %” value [2] was −44%, the “H2O2 (AU) (DHR GMFI)” value ([2]; single values) was 2531 AU and 2502 AU and the “C11-fluor (AU) Mean (1/GMFI)” value [3, 4] was 4.3E−04 AU. The “lipid peroxide % Irradiated control” value [3, 4] was 93%, the “lipid peroxide Protection %” value [3, 4] was 9% and the “C11-fluor (AU) 1/GMFI” value [3, 5] was 4.1E−04 AU and 4.4E−04 AU. For the same compound, the “C11-fluor (AU) GMFI” value [3, 5] was 2414 AU and 2255 AU and the “anti-oxidative function on lipid peroxides” value ([3]; UV irradiation) was “anti-oxidative function”.
